O=C(O)Cn1cnnn1
Conditions	solubility (mole fraction)
in acetone, 288.23 K	0.0964
in acetone, 293.32 K	0.105
in acetone, 298.24 K	0.115
in acetone, 303.31 K	0.125
in acetone, 308.18 K	0.136
in acetone, 313.26 K	0.149
in acetone, 318.27 K	0.162
in acetone, 323.23 K	0.175
in ethanol, 283.27 K	0.0517
in ethanol, 288.17 K	0.0621
in ethanol, 293.46 K	0.075
in ethanol, 298.22 K	0.0891
in ethanol, 303.31 K	0.108
in ethanol, 308.17 K	0.129
in ethanol, 313.23 K	0.157
in ethanol, 318.21 K	0.189
in ethanol, 323.26 K	0.229
in ethyl acetate, 288.27 K	0.0121
in ethyl acetate, 293.28 K	0.0138
in ethyl acetate, 298.19 K	0.0154
in ethyl acetate, 303.31 K	0.0173
in ethyl acetate, 308.22 K	0.0193
in ethyl acetate, 313.26 K	0.0218
in ethyl acetate, 318.16 K	0.0246
in ethyl acetate, 323.21 K	0.0281
in isopropanol, 288.17 K	0.0282
in isopropanol, 293.22 K	0.0374
in isopropanol, 298.26 K	0.0491
in isopropanol, 303.2 K	0.063
in isopropanol, 308.21 K	0.0794
in isopropanol, 313.29 K	0.0985
in isopropanol, 318.24 K	0.119
in isopropanol, 323.27 K	0.143
in methanol, 288.18 K	0.145
in methanol, 293.29 K	0.155
in methanol, 298.23 K	0.173
in methanol, 303.22 K	0.199
in methanol, 308.24 K	0.233
in methanol, 313.34 K	0.276
in methanol, 318.22 K	0.326
in methanol, 323.19 K	0.383
in n-butyl acetate, 288.22 K	0.00443
in n-butyl acetate, 293.3 K	0.00483
in n-butyl acetate, 298.33 K	0.00552
in n-butyl acetate, 303.18 K	0.00647
in n-butyl acetate, 308.22 K	0.00773
in n-butyl acetate, 313.3 K	0.00931
in n-butyl acetate, 318.24 K	0.0111
in n-butyl acetate, 323.28 K	0.0133
in n-propanol, 288.27 K	0.0312
in n-propanol, 293.21 K	0.0386
in n-propanol, 298.23 K	0.0464
in n-propanol, 303.29 K	0.0557
in n-propanol, 308.33 K	0.068
in n-propanol, 313.18 K	0.0839
in n-propanol, 318.22 K	0.106
in n-propanol, 323.32 K	0.135
in water, 283.17 K	0.00729
in water, 288.31 K	0.0109
in water, 293.28 K	0.016
in water, 298.24 K	0.0234
in water, 303.19 K	0.0348
in water, 308.3 K	0.0549
in water, 313.17 K	0.0826
in water, 318.22 K	0.122
in water, 323.16 K	0.173

Reference: BigSolDB 2.1
